The record followed here is patent US20100160369A1, “S1P1 Agonists and Methods of Making And Using” (EXELIXIS, INC., priority 2008, published 2010).

The term EC50 denotes the concentration needed to bring the measured effect to its halfway point.

Test [1] deals with T1, S1P1 (Homo sapiens, UniProt P21453). In words: Tango β-arrestin Recruitment Assay in HEK293 cells (Assay 2a). The test is classed as cell-based. On the set-up: linker with TEV protease (N1a) cleavage site (C); host or cells: HEK293, transiently transfected. The source says: For the Tango™ β-arrestin recruitment assay, the cytoplasmic C-terminus of S1P1 is tethered to the tTA transcriptional activator with a linker that contains a cleavage site for the N1a protease from tobacco etch virus (TEV protease). The C-terminus of the human β-arrestin2 protein is fused to TEV protease. Binding of an agonist recruits the β-arrestin-TEV fusion protein to the receptor resulting in cleavage of the linker and release of tTA to enter the nucleus and subsequently activate a tTA-dependent luciferase reporter gene.
Frozen HEK293 cells transiently transfected with receptor cDNAs for S1P1 (Invitrogen) were thawed and suspended in 10 mL of Pro293a-CDM culture medium (Invitrogen) supplemented with 4 mM L-Glutamine (Invitrogen), 1× Pen/Strep (100 units/mL penicillin and 100 μg/mL streptomycin, Invitrogen) and 0.1% fatty acid free BSA (Sigma-Aldrich). Cells were added to the wells of a 384-well white opaque bottom assay plate (PerkinElmer) at 3,000-6,000 cells per well and the plate was incubated for approximately 4 h in a 37° C. incubator. Test compounds were tested at maximum concentrations of 10 μM for the agonist assays. Compounds were diluted in DMSO (10 concentration points, 3-fold each) and added to the assay plate at a 1% final DMSO concentration. For each compound, there were duplicate assay plates and each assay plate had duplicate wells per concentration point. The plate was incubated at 37° C. for 30 min. The efficacy control was 5 μM S1P (Avanti). Following agonist addition, the assay plates were incubated in a 37° C. incubator for 16-18 h. Luciferase assay reagent was added and luminescence measured in an EnVision plate reader (PerkinElmer). To determine agonist activity, percent activity was calculated as [(test compound−background)/(positive control−background)* 100], where background is the luminescence of the DMSO alone control and the positive control is the luminescence from cells incubated with the efficacy control 5 μM S1P. The percent activities were plotted against compound concentration to determine EC50 using XLFit (IDBS).
Assay 1 is the CNG cAMP Assay as described in Biological Example 1. Assay 2a and 2b are the Tango™ β-arrestin Recruitment Assay in HEK293 and U2OS cells, respectively, as described in Biological Example 2. Assay 3a is the hS1P1R GTPγS Binding Assay as described in Biological Example 3. Assay 3b is the GTP-Eu Binding Assay as described in Biological Example 3. EC50's were measured unless otherwise noted. […] In the table, “nt” means the Compound was not tested and “no” means the compound was tested but had no measurable activity under the assay conditions employed.
On the technique in general: Activated receptors often draw arrestin, which recruitment assays turn into a signal.
Target sequence in this assay (P21453 whole entry, the tested form may be a part): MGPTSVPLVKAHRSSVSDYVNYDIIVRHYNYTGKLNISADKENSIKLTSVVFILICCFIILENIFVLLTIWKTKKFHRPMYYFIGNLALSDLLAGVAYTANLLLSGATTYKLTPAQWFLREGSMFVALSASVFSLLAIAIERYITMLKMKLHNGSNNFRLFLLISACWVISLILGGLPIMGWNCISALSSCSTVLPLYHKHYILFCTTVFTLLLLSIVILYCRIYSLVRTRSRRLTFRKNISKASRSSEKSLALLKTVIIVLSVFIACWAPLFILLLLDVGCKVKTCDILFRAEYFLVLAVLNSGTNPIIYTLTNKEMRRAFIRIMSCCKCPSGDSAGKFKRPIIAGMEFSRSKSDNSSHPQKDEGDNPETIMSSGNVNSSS
Target sequence in this assay (P32121 whole entry partner, the tested form may be a part): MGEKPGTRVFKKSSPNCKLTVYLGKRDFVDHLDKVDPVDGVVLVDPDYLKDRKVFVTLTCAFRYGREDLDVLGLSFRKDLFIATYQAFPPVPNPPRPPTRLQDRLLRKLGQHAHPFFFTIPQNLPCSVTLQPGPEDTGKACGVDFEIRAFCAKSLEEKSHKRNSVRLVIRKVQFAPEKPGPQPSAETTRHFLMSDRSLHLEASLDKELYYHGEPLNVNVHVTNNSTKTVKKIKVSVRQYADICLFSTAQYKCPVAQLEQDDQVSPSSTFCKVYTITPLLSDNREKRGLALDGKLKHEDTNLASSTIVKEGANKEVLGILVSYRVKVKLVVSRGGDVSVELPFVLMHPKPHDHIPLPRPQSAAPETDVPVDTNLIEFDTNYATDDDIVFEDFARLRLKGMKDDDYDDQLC

In test [2] the target is T1, S1P1. In words: CNG cAMP Assay (Assay 1). On the set-up: host or cells: HEK293 cells expressing the CNG channel. Format: cell-based. An outline of the steps: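 HEK293 cells expressing CNG channel and S1P1, membrane-potential dye loaded; compounds (top 10 μM, 10-point 3-fold, 1.8% DMSO) added with 25 μM Ro 20-1724, 500 nM NECA and 10 nM S1P for 90 min. T90/T0 fluorescence (Ex 350/Em 590 nm) normalised to NECA-alone vs DMSO; EC50 fitted.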
Target sequence in this assay (P21453 whole entry, the tested form may be a part): as the sequence (P21453 whole entry, the tested form may be a part) above

Where [3] appears, read: Tango β-arrestin Recruitment Assay, read-out: Assay 2a EC50.
The mark [4] stands for this setting: Tango β-arrestin, footnote 1: Relative EC50 was measured, read-out: Assay 2a Relative EC50.
Where [5] appears, read: footnote 1: Relative EC50 was measured, read-out: Assay 1 Relative EC50.

SMILES strings stand for the structures.

Regarding `O=C(O)C(O)COc1cc(Cl)c(-c2noc(-c3cn4cc(C(F)(F)F)cc(Cl)c4n3)n2)cc1Cl` (stereo not shown) [Entry 58], the EC50 at S1P1 [1] (setting [3]) is no more than 100 nM.

For `Cc1ccc(Oc2cc(Cl)c3nc(-c4nc(-c5cc(F)c(CCC(=O)O)cc5Cl)no4)cn3c2)cc1` [Entry 67], the EC50 at S1P1 [1] (setting [3]) was no more than 100 nM.

With `O=C(O)CCc1cc(Cl)c(-c2noc(-c3cn4cc(Br)cc(Br)c4n3)n2)cc1F` [Entry 71], at S1P1 [1] (setting [3]), the EC50 was no more than 100 nM.

On to `COCCOc1cc(Cl)c(-c2noc(-c3cn4cc(C(F)(F)F)cc(Cl)c4n3)n2)cc1Cl` [Entry 76], for which, on S1P1 [1] (setting [3]), the EC50 was no more than 100 nM.

As to `CC(O)COc1c(Cl)cc(-c2noc(-c3cn4cc(C(F)(F)F)cc(Cl)c4n3)n2)cc1Cl` (stereo not shown) [Example 104, 1-[(2,6-dichloro-4-{5-[8-chloro-6-(trifluoromethyl)imidazo[1,2-a]pyridin-2-yl]-1,2,4-oxadiazol-3-yl}phenyl)oxy]propan-2-ol], on S1P1 [1] (setting [3]), the EC50 was no more than 100 nM.

Take `OC(CF)COc1cc(Cl)c(-c2noc(-c3cn4cc(C(F)(F)F)cc(Br)c4n3)n2)cc1Cl` (stereo not shown) [Example 110, 1-[(4-{5-[8-bromo-6-(trifluoromethyl)imidazo[1,2-a]pyridin-2-yl]-1,2,4-oxadiazol-3-yl}-2,5-dichlorophenyl)oxy]-3-fluoropropan-2-ol]: at S1P1 [1] (setting [3]), the EC50 was no more than 100 nM.

As to `OCCNc1ccc(-c2noc(-c3cn4cc(C(F)(F)F)cc(Cl)c4n3)n2)c(Cl)c1` [Example 115, 2-[(3-chloro-4-{5-[8-chloro-6-(trifluoromethyl)imidazo[1,2-a]pyridin-2-yl]-1,2,4-oxadiazol-3-yl}phenyl)amino]ethanol], the EC50 on S1P1 [1] (setting [3]) was no more than 100 nM.

For the compound `OCCNCc1cc(Cl)c(-c2noc(-c3cn4cc(C(F)(F)F)cc(Cl)c4n3)n2)cc1Cl` [Example 138, 2-{[(2,5-dichloro-4-{5-[8-chloro-6-(trifluoromethyl)imidazo[1,2-a]pyridin-2-yl]-1,2,4-oxadiazol-3-yl}phenyl)methyl]amino}ethanol], the EC50 at S1P1 [1] (setting [4]) was in the range of 100 to 500 nM.

Take `CC(Cc1cc(Cl)c(-c2noc(-c3cn4cc(C(F)(F)F)cc(Cl)c4n3)n2)cc1Cl)C(=O)O` (stereo not shown) [Example 190, 3-(2,5-dichloro-4-{5-[8-chloro-6-(trifluoromethyl)imidazo[1,2-a]pyridin-2-yl]-1,2,4-oxadiazol-3-yl}phenyl)-2-methylpropanoic acid]: the half-maximal effective concentration (EC50) on S1P1 [1] (setting [4]) was 100 to 500 nM.

In the case of `CC(Cc1cc(Cl)c(-c2noc(-c3cn4cc(C(F)(F)F)cc(Br)c4n3)n2)cc1Cl)C(=O)O` (stereo not shown) [Example 225, 3-(4-{5-[8-bromo-6-(trifluoromethyl)imidazo[1,2-a]pyridin-2-yl]-1,2,4-oxadiazol-3-yl}-2,5-dichlorophenyl)-2-methylpropanoic acid], the EC50 at S1P1 [1] (setting [4]) lay within 100 to 500 nM.

In the case of `CC(Cc1cc(Cl)c(-c2nc(-c3cn4cc(C(F)(F)F)cc(Cl)c4n3)no2)cc1Cl)C(=O)O` (stereo not shown) [Example 241, 3-(2,5-dichloro-4-{3-[8-chloro-6-(trifluoromethyl)imidazo[1,2-a]pyridin-2-yl]-1,2,4-oxadiazol-5-yl}phenyl)-2-methylpropanoic acid], the EC50 at S1P1 [1] (setting [3]) was no more than 100 nM.

For the compound `CC(CO)Oc1c(F)cc(-c2noc(-c3cn4cc(C(F)(F)F)cc(Cl)c4n3)n2)cc1Cl` (stereo not shown) [Example 261, 2-[(2-chloro-4-{5-[8-chloro-6-(trifluoromethyl)imidazo[1,2-a]pyridin-2-yl]-1,2,4-oxadiazol-3-yl}-6-fluorophenyl)oxy]propan-1-ol], the concentration giving a half-maximal response (EC50) on S1P1 [2] (read-out: Assay 1 EC50) is no more than 100 nM.

For the compound `CC(C)(CO)Oc1c(F)cc(-c2noc(-c3cn4cc(C(F)(F)F)cc(Cl)c4n3)n2)cc1Cl` [Example 262, 2-[(2-chloro-4-{5-[8-chloro-6-(trifluoromethyl)imidazo[1,2-a]pyridin-2-yl]-1,2,4-oxadiazol-3-yl}-6-fluorophenyl)oxy]-2-methylpropan-1-ol], the EC50 on S1P1 [2] (setting [5]) fell in the range of 1000 to 5000 nM.

Consider `Fc1cc(-c2noc(-c3cn4cc(C(F)(F)F)cc(Cl)c4n3)n2)c(Cl)cc1OC1CCNC1` (stereo not shown) [Example 264, 8-chloro-2-{3-[2-chloro-5-fluoro-4-(pyrrolidin-3-yloxy)phenyl]-1,2,4-oxadiazol-5-yl}-6-(trifluoromethyl)imidazo[1,2-a]pyridine], for which the EC50 on S1P1 [2] (read-out: Assay 1 EC50) was no more than 100 nM.

Turning to `CS(=O)(=O)Nc1c(F)cc(-c2noc(-c3cn4cc(C(F)(F)F)cc(Cl)c4n3)n2)cc1F` [Example 265, N-(4-{5-[8-chloro-6-(trifluoromethyl)imidazo[1,2-a]pyridin-2-yl]-1,2,4-oxadiazol-3-yl}-2,6-difluorophenyl)methanesulfonamide], the EC50 at S1P1 [2] (setting [5]) is 500 to 1000 nM.

On to `CS(=O)(=O)Nc1c(F)cc(-c2noc(-c3cn4cc(C(F)(F)F)cc(Cl)c4n3)n2)cc1Cl` [Example 268, N-(2-chloro-4-{5-[8-chloro-6-(trifluoromethyl)imidazo[1,2-a]pyridin-2-yl]-1,2,4-oxadiazol-3-yl}-6-fluorophenyl)methane sulfonamide], for which the EC50 at S1P1 [2] (read-out: Assay 1 EC50) lay in the range of 500 to 1000 nM.

As for `CS(=O)(=O)Nc1ccc(-c2noc(-c3cn4cc(C#N)cc(Cl)c4n3)n2)c(Cl)c1` [Example 269, N-{3-chloro-4-[5-(8-chloro-6-cyanoimidazo[1,2-a]pyridin-2-yl)-1,2,4-oxadiazol-3-yl]phenyl}methanesulfonamide], on S1P1 [2] (setting [5]), the EC50 lay in the range of 5000 to 10000 nM.

Take `Cc1cc(Cl)c2nc(-c3nc(-c4ccc(NS(C)(=O)=O)cc4Cl)no3)cn2c1` [Example 270, N-{3-chloro-4-[5-(8-chloro-6-methylimidazo[1,2-a]pyridin-2-yl)-1,2,4-oxadiazol-3-yl]phenyl}methanesulfonamide]: the EC50 on S1P1 [2] (setting [5]) was 5000 to 10000 nM.

As to `O=c1[nH]c(Cc2ccc(-c3noc(-c4cn5cc(C(F)(F)F)cc(Cl)c5n4)n3)c(Cl)c2)no1` [Example 271, 3-[(3-chloro-4-{5-[8-chloro-6-(trifluoromethyl)imidazo[1,2-a]pyridin-2-yl]-1,2,4-oxadiazol-3-yl}phenyl)methyl]-1,2,4-oxadiazol-5(4H)-one], on S1P1 [2] (read-out: Assay 1 EC50), the EC50 fell in the range of 100 to 500 nM.

Turning to `FC(F)(F)c1cc(Cl)c2nc(-c3nc(-c4ccccc4Cl)no3)cn2c1` [Example 273, 8-chloro-2-[3-(2-chlorophenyl)-1,2,4-oxadiazol-5-yl]-6-(trifluoromethyl)imidazo[1,2-a]pyridine], the EC50 on S1P1 [2] (read-out: Assay 1 EC50) is no more than 100 nM.

Consider `O=C(O)[C@@H]1C[C@H](Oc2ccc(-c3noc(-c4cn5cc(C(F)(F)F)cc(Cl)c5n4)n3)c(Cl)c2)CN1` [Example 276, (4S)-4-[(3-chloro-4-{5-[8-chloro-6-(trifluoromethyl)imidazo[1,2-a]pyridin-2-yl]-1,2,4-oxadiazol-3-yl}phenyl)oxy]-L-proline], for which, at S1P1 [2] (read-out: Assay 1 EC50), the EC50 was no more than 100 nM.

Take `Fc1ccc(-c2noc(-c3cn4cc(C(F)(F)F)cc(Br)c4n3)n2)c(Cl)c1` [Example 281, 8-bromo-2-[3-(2-chloro-4-fluorophenyl)-1,2,4-oxadiazol-5-yl]-6-(trifluoromethyl)imidazo[1,2-a]pyridine]: the EC50 on S1P1 [2] (read-out: Assay 1 EC50) fell in the range of 100 to 500 nM.

On to `FC(F)(F)c1cc(Cl)c2nc(-c3nc(-c4cnccc4C(F)(F)F)no3)cn2c1` [Example 290, 8-chloro-6-(trifluoromethyl)-2-{3-[4-(trifluoromethyl)pyridin-3-yl]-1,2,4-oxadiazol-5-yl}imidazo[1,2-a]pyridine], for which the EC50 on S1P1 [2] (read-out: Assay 1 EC50) lay within 1000 to 5000 nM.

With `N#Cc1cc(C(F)(F)F)cn2cc(-c3nc(-c4ccc(F)cc4Cl)no3)nc12` [Example 291, 2-[3-(2-chloro-4-fluorophenyl)-1,2,4-oxadiazol-5-yl]-6-(trifluoromethyl)imidazo[1,2-a]pyridine-8-carbonitrile], on S1P1 [2] (read-out: Assay 1 EC50), the EC50 lay within 100 to 500 nM.

Turning to `O=C(O)Cn1ccc2c(-c3noc(-c4cn5cc(C(F)(F)F)cc(Cl)c5n4)n3)cccc21` [Example 293, (4-{5-[8-chloro-6-(trifluoromethyl)imidazo[1,2-a]pyridin-2-yl]-1,2,4-oxadiazol-3-yl}-1H-indol-1-yl)acetic acid], the EC50 on S1P1 [2] (read-out: Assay 1 EC50) lay in the range of 500 to 1000 nM.
